# Test results: PubChem BioAssay (NCI)
#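 Five compound concentrations were applied to cells in 96-well plates for 48 hours; endpoints were derived by simple linear interpolation of the resulting dose-response curve. GI50 = concentration required for 50% inhibition of growth. Definition used: TGI = concentration required for complete inhibition of growth.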
# Legend:
# Test in all cases: NCI-60 cell line screen, 48 h
# 786-0 renal = system: 786-0 renal
# A498 renal = system: A498 renal
# A549 NSCLC = system: A549 NSCLC
# ACHN renal = system: ACHN renal
# BT-549 breast = system: BT-549 breast
# CAKI-1 renal = system: CAKI-1 renal
# CCRF-CEM leukemia = system: CCRF-CEM leukemia
# COLO 205 colon = system: COLO 205 colon
# DU-145 prostate = system: DU-145 prostate
# EKVX NSCLC = system: EKVX NSCLC
# HCC-2998 colon = system: HCC-2998 colon
# HCT-116 colon = system: HCT-116 colon
# HCT-15 colon = system: HCT-15 colon
# HL-60(TB) leukemia = system: HL-60(TB) leukemia
# HOP-62 NSCLC = system: HOP-62 NSCLC
# HOP-92 NSCLC = system: HOP-92 NSCLC
# HS 578T breast = system: HS 578T breast
# HT29 colon = system: HT29 colon
# IGROV1 ovarian = system: IGROV1 ovarian
# K-562 leukemia = system: K-562 leukemia
# KM12 colon = system: KM12 colon
# M14 melanoma = system: M14 melanoma
# MALME-3M melanoma = system: MALME-3M melanoma
# MCF7 breast = system: MCF7 breast
# MDA-MB-231 breast = system: MDA-MB-231 breast
# MDA-MB-435 = system: MDA-MB-435
# MOLT-4 leukemia = system: MOLT-4 leukemia
# NCI-H226 lung = system: NCI-H226 lung
smiles,measurement,setting,value
CCCCCCNC(=O)Oc1ccc(/C(=C(/C)c2ccccc2)c2ccc(OCCN3CCCCCC3)cc2)cc1,GI50,786-0 renal,5.42 µM
same,TGI,786-0 renal,18.7 µM
same,GI50,A498 renal,15.7 µM
same,TGI,A498 renal,29.4 µM
same,GI50,A549 NSCLC,12.1 µM
same,TGI,A549 NSCLC,26.4 µM
same,GI50,ACHN renal,13.3 µM
same,TGI,ACHN renal,26.2 µM
same,GI50,BT-549 breast,8.55 µM
same,TGI,BT-549 breast,21.8 µM
same,GI50,CAKI-1 renal,2.74 µM
same,TGI,CAKI-1 renal,11.9 µM
same,GI50,CCRF-CEM leukemia,11.5 µM
same,TGI,CCRF-CEM leukemia,> 100 µM
same,GI50,COLO 205 colon,3.14 µM
same,TGI,COLO 205 colon,12.1 µM
same,GI50,DU-145 prostate,15.7 µM
same,TGI,DU-145 prostate,37.7 µM
same,GI50,EKVX NSCLC,13.2 µM
same,TGI,EKVX NSCLC,31.2 µM
same,GI50,HCC-2998 colon,11 µM
same,TGI,HCC-2998 colon,23.5 µM
same,GI50,HCT-116 colon,4.33 µM
same,TGI,HCT-116 colon,16.9 µM
same,GI50,HCT-15 colon,2.83 µM
same,TGI,HCT-15 colon,9.61 µM
same,GI50,HL-60(TB) leukemia,2.79 µM
same,TGI,HL-60(TB) leukemia,17.7 µM
same,GI50,HOP-62 NSCLC,13 µM
same,TGI,HOP-62 NSCLC,26.9 µM
same,GI50,HOP-92 NSCLC,2.9 µM
same,TGI,HOP-92 NSCLC,14.9 µM
same,GI50,HS 578T breast,8.02 µM
same,TGI,HS 578T breast,26.9 µM
same,GI50,HT29 colon,3.07 µM
same,TGI,HT29 colon,11.1 µM
same,GI50,IGROV1 ovarian,11.9 µM
same,TGI,IGROV1 ovarian,27.9 µM
same,GI50,K-562 leukemia,2.87 µM
same,TGI,K-562 leukemia,> 100 µM
same,GI50,KM12 colon,6.31 µM
same,TGI,KM12 colon,35.6 µM
same,GI50,M14 melanoma,2.89 µM
same,TGI,M14 melanoma,11.1 µM
same,GI50,MALME-3M melanoma,7.97 µM
same,TGI,MALME-3M melanoma,21.5 µM
same,GI50,MCF7 breast,0.172 µM
same,TGI,MCF7 breast,13.1 µM
same,GI50,MDA-MB-231 breast,12.8 µM
same,TGI,MDA-MB-231 breast,26.8 µM
same,GI50,MDA-MB-435,10.8 µM
same,TGI,MDA-MB-435,23.3 µM
same,GI50,MOLT-4 leukemia,3.48 µM
same,TGI,MOLT-4 leukemia,25 µM
same,GI50,NCI-H226 lung,13.3 µM
same,TGI,NCI-H226 lung,28.7 µM
